According to patent EP1140809B1, “NEW BIPHENYL AND BIPHENYL-ANALOGOUS COMPOUNDS AS INTEGRIN ANTAGONISTS” (Bayer HealthCare AG, priority 1998, dated 2000):

Key:
Smooth muscle cells = assay: Smooth muscle cell (SMC) migration test (horizontal, vitronectin-coated plates); format: cell-based, humans or rats; details: migration on vitronectin, 24 hours at 37°C; human or rat cells not specified
Experimental: b) Smooth muscle cell (SMC) migration test
Smooth muscle cells from humans or rats were used. The migration of the cells was determined in a horizontal measuring arrangement (Falcon).
The horizontal migration was determined in 6-well plates coated with vitronectin (1 µg/cm^2). The cells were suspended in a medium ([…]-rat smooth muscle cells or MCDB 131 with 0.2% BSA-human smooth muscle cells), inoculated and allowed to grow to confluence. Half of the smooth muscle cell lawn was then scraped off, and the cells were treated with different concentrations of the test compounds. The mixtures were incubated for 24 hours at 37°C in the presence of 5% CO2. After the incubation, the smooth muscle cell migration was determined by measurement of the migration distance and the cell density of the migrated cells.

αvβ3 receptor = biological target: T1, αvβ3 receptor (Homo sapiens, UniProt P05106+P06756); assay: Binding to the αvβ3 receptor (echistatin displacement, WGA SPA beads); details: αvβ3 purified from human A375 cells, labelled echistatin, read-out: avb3 IC50
T1 construct: αvβ3 from human A375 cells were purified according to a procedure described by Wong et al; endogenous in cells; host or cells: human A375 cells; receptor purified from the cells, detergent-solubilised
Experimental: a) Binding to the αvβ3 receptor
10 µl αvβ3 (5 ng) in TBS pH 7.6, 2 mM CaCl2, 1mM MgCl2, 1% n/octylglucopyranoside; 10 µl of the substance to be tested in TBS pH 7.6, 0.1 % dimethylsulfoxide (DMSO), and 45 µl TBS pH 7.6, 2 mM CaCl2, 1 mM MgCl2, 1 mM MnCl2 were each incubated for 1 h at room temperature.

αvβ5 receptor = αvβ5 receptor (Homo sapiens, UniProt P06756+P18084); details: disclosed in WO 98/00395; cited from earlier work
Sequence of αvβ5 receptor (P06756 31-889 limits assumed): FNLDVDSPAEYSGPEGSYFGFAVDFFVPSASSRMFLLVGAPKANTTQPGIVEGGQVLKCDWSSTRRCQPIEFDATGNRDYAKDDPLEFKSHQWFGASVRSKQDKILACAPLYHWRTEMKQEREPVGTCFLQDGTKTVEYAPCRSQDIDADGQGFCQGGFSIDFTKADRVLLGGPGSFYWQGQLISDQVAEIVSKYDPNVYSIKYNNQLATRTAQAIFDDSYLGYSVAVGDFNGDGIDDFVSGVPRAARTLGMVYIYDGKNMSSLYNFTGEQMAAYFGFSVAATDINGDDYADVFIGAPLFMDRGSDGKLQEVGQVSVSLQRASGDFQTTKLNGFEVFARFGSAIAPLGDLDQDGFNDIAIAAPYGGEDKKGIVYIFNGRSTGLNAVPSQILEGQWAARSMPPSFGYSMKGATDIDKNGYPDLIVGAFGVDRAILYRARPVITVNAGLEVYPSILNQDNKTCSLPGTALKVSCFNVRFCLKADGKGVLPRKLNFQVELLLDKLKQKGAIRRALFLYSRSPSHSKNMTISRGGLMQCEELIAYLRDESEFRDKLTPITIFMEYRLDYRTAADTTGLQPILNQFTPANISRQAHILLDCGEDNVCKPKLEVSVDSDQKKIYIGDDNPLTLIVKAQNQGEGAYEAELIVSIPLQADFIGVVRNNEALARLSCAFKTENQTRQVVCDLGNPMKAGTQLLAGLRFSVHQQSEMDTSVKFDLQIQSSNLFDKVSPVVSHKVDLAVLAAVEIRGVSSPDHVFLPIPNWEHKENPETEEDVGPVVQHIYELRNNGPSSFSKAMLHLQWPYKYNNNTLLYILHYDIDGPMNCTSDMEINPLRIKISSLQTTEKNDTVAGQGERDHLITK
Sequence of αvβ5 receptor (P06756 891-1048 partner limits assumed): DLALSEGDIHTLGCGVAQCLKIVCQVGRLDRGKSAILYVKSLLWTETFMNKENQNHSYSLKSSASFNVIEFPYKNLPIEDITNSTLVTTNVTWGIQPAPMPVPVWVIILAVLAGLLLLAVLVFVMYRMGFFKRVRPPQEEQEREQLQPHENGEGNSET
Sequence of αvβ5 receptor (P18084 24-799): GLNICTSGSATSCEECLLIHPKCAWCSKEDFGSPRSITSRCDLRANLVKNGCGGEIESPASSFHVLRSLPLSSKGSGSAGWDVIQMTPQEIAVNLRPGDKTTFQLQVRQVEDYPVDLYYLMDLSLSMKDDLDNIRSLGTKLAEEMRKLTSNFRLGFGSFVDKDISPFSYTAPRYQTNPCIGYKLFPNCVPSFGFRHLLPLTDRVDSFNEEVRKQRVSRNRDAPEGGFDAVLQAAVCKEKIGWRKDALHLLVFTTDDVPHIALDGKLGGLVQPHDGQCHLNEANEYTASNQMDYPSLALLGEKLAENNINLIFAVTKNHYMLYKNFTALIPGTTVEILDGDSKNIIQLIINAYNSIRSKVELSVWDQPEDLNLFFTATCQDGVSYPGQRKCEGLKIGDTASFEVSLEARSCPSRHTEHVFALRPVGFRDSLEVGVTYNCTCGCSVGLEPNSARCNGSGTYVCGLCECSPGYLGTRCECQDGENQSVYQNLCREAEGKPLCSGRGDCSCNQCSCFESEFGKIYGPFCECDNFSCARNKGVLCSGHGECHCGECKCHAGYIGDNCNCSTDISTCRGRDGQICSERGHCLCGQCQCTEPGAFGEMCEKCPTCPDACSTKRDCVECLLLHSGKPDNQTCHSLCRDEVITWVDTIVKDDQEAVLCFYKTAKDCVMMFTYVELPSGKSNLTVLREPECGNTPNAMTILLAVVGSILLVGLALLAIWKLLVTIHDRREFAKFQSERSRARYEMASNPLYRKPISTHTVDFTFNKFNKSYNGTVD

T1 sequence (P06756 31-889 limits assumed): as the sequence (P06756 31-889 limits assumed) above
T1 sequence (P06756 891-1048 partner limits assumed): as the sequence (P06756 891-1048 partner limits assumed) above
T1 sequence (P05106 27-788): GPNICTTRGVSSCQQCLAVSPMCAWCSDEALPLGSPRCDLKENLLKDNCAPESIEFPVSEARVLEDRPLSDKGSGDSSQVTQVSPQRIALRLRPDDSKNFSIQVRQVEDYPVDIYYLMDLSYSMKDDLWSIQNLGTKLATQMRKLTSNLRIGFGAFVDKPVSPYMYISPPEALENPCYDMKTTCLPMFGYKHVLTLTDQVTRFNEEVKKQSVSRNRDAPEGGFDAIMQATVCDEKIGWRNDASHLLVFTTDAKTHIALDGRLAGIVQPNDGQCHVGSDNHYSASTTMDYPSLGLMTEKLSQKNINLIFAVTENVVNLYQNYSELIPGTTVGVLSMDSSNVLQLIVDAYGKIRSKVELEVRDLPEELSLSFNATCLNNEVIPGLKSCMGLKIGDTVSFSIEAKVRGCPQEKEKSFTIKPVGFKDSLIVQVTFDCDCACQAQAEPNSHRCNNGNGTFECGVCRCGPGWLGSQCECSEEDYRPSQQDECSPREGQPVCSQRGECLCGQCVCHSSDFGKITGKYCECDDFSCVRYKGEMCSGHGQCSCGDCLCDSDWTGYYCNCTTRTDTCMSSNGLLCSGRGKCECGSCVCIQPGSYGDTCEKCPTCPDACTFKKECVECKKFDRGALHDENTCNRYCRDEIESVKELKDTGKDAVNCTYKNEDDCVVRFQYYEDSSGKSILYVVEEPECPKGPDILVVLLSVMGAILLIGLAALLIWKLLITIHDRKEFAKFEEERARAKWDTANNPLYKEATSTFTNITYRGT

Row | SMILES | IC50 (Smooth muscle cells) [nM] | IC50 (αvβ3 receptor) [nM] | IC50 (αvβ5 receptor) [nM]
1 | Cc1cc(C)c(S(=O)(=O)NC(Cc2ccc(-c3cccc(NC(=O)NCc4cccnc4)c3)cc2)C(=O)O)c(C)c1 (racemic) [Example 1.5, (2R,S)-3-[3'-(3-(Pyridin-3-yl-methylureido)-biphenyl-4-yl]-2-[2,4,6-trimethylbenzenesulfonylamino]-propanoic acid] | 480 | 5 | –
2 | Cc1cc(C)c(S(=O)(=O)NC(Cc2ccc(-c3cccc(NC4=NCCN4)c3)cc2)C(=O)O)c(C)c1 (racemic) [Example 7.1, (2R,S)-3-[3'-(4,5-Dihydro-1H-Imidazol-2-ylamino)-biphenyl-4-yl]-2-(2,4,6-trimethyl-benzenesulfonylamino)-propanoic acid] | – | 1.2 | –
3 | O=C(O)CC(NS(=O)(=O)c1cccc(-c2cccc(CNCc3nc4ccccc4[nH]3)c2)c1)c1ccccc1 (racemic) [Example 8.1, (3R,S)-3-(3'-{[(1H-Benzoimidazol-2-ylmethyl)-amino]-methyl}-biphenyl-3-sulfonylamino)-3-phenyl-propanoic acid] | 300 | – | –
4 | CC1(C)C2CCC1(CS(=O)(=O)NC(Cc1ccc(OCCCC(=O)NC(=N)N)cc1)C(=O)O)C(=O)C2 (centres unmarked) [(I)] | – | – | 0.16
5 | Cc1cc(C)c(S(=O)(=O)N[C@@H](Cc2ccc(-c3cccc(NC(=O)NC4CC4)c3)cc2)C(=O)O)c(C)c1 [Example 1.13, (2S)-3-[3'-(3-Cyclopropyl-ureido)-biphenyl-4-yl]-2-(2,4,6-trimethyl-benzenesulfonylamino)-propanoic acid] | 390 | 1.2 | –
6 | CC1(C)C2CCC1(CS(=O)(=O)NC(Cc1ccc(-c3cccc(NC(=O)Nc4cccnc4)c3)cc1)C(=O)O)C(=O)C2 [Example 1.73, (2S)-3-[3'-(3-Pyridin-3-yl-ureido)-biphenyl-4-yl]-2-[(S)-campher-10-yl-sulfonylamino]-propanoic acid] | 3 to 40 | – | –
7 | O=C(O)CNS(=O)(=O)c1cccc(-c2cccc(NC(=O)NCc3ccccn3)c2)c1 [Example 4.1, [3'-(3-Pyridin-2-ylmethyl-ureido)-biphenyl-3-sulfonylamino]-acetic acid] | 300 | 33 | –
8 | Cc1cc(C)c(S(=O)(=O)N[C@@H](Cc2ccc(-c3cccc(CNc4ccccn4)c3)cc2)C(=O)O)c(C)c1 [Example 18.1.3, (2S)-2-Mesitylsulfonylamino-3-{3'-[(2-pyridinylamino)-methyl][1,1'-biphenyl]-4-yl}-propanoic acid] | 35 to 80 | 9 | –
9 | Cc1cc(C)c(S(=O)(=O)N[C@@H](Cc2ccc(-c3cccc(NC(=O)c4ncc[nH]4)c3)cc2)C(=O)O)c(C)c1 [Example 19.1.2, (2S)-3-{3'-[(1H-imidazol-2-ylcarbonyl)amino][1,1'-biphenyl]-4-yl}-2-[(mesitylsulfonyl)amino]-propanoic acid] | 80 | 1 | –
